Measured values taken from patent US20040057908A1, “Oral compositions and use thereof” (priority 2003, published 2004).
“Also recorded” adds a separate entry of the source.

Assays:
GTF B = molecular target: T1, GTF B (Streptococcus mutans serotype c, UniProt P08987); test: GTF activity in solution, GTF B; assay type: biochemical; conditions: read-out: GTF B sol. % of Inhib.
T1 construct: made in house; host or cells: Streptococcus milleri KSB8 (culture supernatant)
Description: Glucosyltransferase activity was measured by the incorporation of [^14C-glucose] from labeled sucrose (NEN Research Products, Boston, Mass.) into glucans (Germaine et al., 1974; Venkitaraman et al., 1995). The GTF enzyme added to each sample for all assays was equivalent to the amount required to incorporate 1.0-1.5 μmol of glucose over the four hours reaction (1.0-1.5 units).
For solution assays, purified GTF B, C, D and Ss were mixed with a two-fold dilution series of the test compounds (concentration ranging from 125 to 500 μM) and incubated with [^14C-glucose]-sucrose substrate (0.2 μCi/ml) (200.0 mmol/l sucrose, 40 μmol/l dextran 9000, 0.02% sodium azide in adsorption buffer—50 mM KCl, 1.0 mM KPO4, 1.0 mM CaCl2, 0.1 mM MgCl2−pH=6.5) to reach a final concentration of 100 mmol/l sucrose (200 μl final volume). For the control, the same reaction was carried out, where ethanol:DMSO (final concentration of 7.5% and 1.25%, v/v) or ethanol (final concentration of 5%, v/v) replaced the test agent solutions. The samples were incubated 37° C. with rocking for 4 h. After incubation, ice-cold ethanol (1.0 ml) was added and the samples were stored for 18 h, 4° C. for precipitation of glucans. Radiolabeled glucan was determined by scintillation counting (Germaine et al., 1974; Venkitaraman et al., 1995).

streptococcal GTFs = system: T2, streptococcal GTFs; test: GTF activity in solution, all GTFs (B, C, D, Ss) stated together; assay type: biochemical, Streptococcus mutans, S. sanguinis; conditions: 1.33 mM
T2 construct: Streptococcus milleri KSB8, which harbors the gtfB gene from S. mutans GS-5 (for GTF B production)
Description: The GTF enzyme added to each sample for all assays was equivalent to the amount required to incorporate 1.0-1.5 μmol of glucose over the four hours reaction (1.0-1.5 units).
The samples were incubated 37° C. with rocking for 4 h.
For this assay, a one-way layout experimental design was used in 4×2×7 factorial scheme (enzyme×state×dose). An analysis of variance was carried out and qualitative treatments were compared using Tukey test at level of 5% of significance (p<0.05). A non-linear regression was applied in order to evaluate effects of different concentrations.

[1] = system: S. mutans UA159 and S. sobrinus 6715 biofilms; test: Time-kill assay in 5-day-old biofilms; assay type: cell-based; conditions: 1.33 mM (fluoride 250 ppm)
Description: Cells of mutans streptococci were grown in tryptone-yeast extract broth with addition of 1% (w/v) sucrose at 37° C. and 5% CO2. […] The killing assays were performed according to Phan et al. (2000). […] The homogenized suspension was serially diluted (10^1 to 10^4) and plated on tryptic soy agar or blood agar by means of a spiral plater (Autoplate model 3000, Spiral Biotech, Inc., Bethesda, Md). […] Killing curves were constructed by plotting log10 CFU/ml versus time over 4 h. All the assays were carried out in quadruplicate on at least 3 different occasions. Bactericidal effect was defined as a ≧3 log10 decreases in the CFU/ml from initial viable counts, at time zero. The potential for drug carry-over to produce falsely low viability counts was minimized by dilution of inocula and plating of small volumes of diluted samples (50 μl).

[2] = system: Streptococcus sobrinus 6715; test: Rat caries experiment: S. sobrinus recovered from the jaws; assay type: in vivo, Sprague Dawley rats; conditions: rats, topical twice daily, five weeks; 1.33 mM (fluoride 250 ppm); means (SD)
Description: Seven litters of ten female Sprague Dawley rats aged 14 days were purchased with their dams from Charles River (Kingston, N.Y., USA). […] The experiment proceeded for five weeks, at which time the animals were killed by CO2 asphyxiation. The lower left jaw was aseptically dissected, suspended in 5.0 mL of sterile saline solution, and sonicated (three 10-second pulses with 5-second intervals at 30 watts, Branson Sonifier 450). The suspension was plated on mitis salivarius agar plus streptomycin to estimate S. sobrinus population and on blood agar to determine total cultivable flora (TCF). […] The determination of caries score was blind by codification of the jaws and was done by 1 calibrated examiner. […] The level of significance was 5%.

T1 sequence (P08987 35-1476): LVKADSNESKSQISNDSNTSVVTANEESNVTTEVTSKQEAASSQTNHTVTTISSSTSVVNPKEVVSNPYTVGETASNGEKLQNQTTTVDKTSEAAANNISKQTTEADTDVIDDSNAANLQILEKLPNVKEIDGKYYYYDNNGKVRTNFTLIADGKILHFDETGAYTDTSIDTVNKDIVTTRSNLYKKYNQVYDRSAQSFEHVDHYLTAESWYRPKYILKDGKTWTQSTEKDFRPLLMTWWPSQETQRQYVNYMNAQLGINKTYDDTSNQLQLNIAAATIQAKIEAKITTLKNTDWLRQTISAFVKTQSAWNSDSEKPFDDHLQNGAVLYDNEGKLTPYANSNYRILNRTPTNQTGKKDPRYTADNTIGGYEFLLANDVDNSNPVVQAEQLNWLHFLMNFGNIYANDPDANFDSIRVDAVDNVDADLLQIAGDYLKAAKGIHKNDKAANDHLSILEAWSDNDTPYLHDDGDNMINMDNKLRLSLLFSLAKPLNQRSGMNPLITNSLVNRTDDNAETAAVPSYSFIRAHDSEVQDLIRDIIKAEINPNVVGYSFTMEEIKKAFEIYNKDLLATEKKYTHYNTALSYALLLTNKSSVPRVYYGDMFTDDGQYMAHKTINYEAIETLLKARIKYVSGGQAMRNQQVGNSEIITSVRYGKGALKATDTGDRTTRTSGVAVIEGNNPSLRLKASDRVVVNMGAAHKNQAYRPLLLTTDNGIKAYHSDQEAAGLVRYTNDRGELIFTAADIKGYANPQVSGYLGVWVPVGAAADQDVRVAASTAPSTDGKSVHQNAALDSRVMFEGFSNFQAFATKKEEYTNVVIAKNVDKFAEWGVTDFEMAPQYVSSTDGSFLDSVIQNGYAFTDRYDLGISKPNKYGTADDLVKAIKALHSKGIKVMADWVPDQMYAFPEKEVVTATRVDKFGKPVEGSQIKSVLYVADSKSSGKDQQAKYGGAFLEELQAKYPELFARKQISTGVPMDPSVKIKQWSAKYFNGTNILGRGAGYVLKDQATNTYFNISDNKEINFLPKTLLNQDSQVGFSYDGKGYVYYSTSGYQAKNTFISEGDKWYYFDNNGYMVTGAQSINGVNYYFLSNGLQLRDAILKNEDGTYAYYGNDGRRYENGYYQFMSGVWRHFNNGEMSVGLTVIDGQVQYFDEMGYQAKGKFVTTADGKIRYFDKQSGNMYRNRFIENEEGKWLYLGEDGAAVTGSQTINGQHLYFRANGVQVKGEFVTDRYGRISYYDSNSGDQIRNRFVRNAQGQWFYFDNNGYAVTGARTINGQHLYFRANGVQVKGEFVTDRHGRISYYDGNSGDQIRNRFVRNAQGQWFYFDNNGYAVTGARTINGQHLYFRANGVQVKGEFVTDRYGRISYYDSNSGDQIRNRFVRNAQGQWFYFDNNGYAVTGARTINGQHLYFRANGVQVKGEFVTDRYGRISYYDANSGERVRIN

O=c1cc(-c2ccc(O)cc2)oc2cc(O)cc(O)c12 [Apigenin]
inhibition at 125 µM (GTF B): 78.3% | inhibition at 250 µM (GTF B): 92.8% | inhibition at 500 µM (GTF B): 94.3% | inhibition of GTFs in solution (streptococcal GTFs): 90-95% | antibacterial activity against mutans streptococci biofilms (in words) [1]: devoid of antibacterial effects; also recorded: negligible antibacterial activity | Infection by S. sobrinus, % [2]: 40.6 (14.2)^ab %
